Eight molecules from patent publication US20230293711A1, “DISRUPTION OF CD28-SIALOSIDE LIGAND COMPLEXES TO ENHANCE T CELL ACTIVATION” (THE SCRIPPS RESEARCH INSTITUTE, priority 2020, published 2023) can be followed below.

Data set [1] has as its system OT-II cells. Nature of the data set: APC-free expansion of OT-II cells with anti-CD3 and recombinant CD80 in the presence of soluble glycan. It is filed as cell-based. Conditions: soluble glycan 500 μM; anti-CD3 and recombinant CD80-Fc. The method, then: FIG. 7. APC-free expansion of OT-II cells in the presence of soluble glycan (500 μM). (A) Experimental setup. T cells were activated using anti-CD3 (αCD3) and recombinant CD80 (rCD80). (B) OT-II cell proliferation histograms. (C) Quantification of data from (B).
Since recombinant CD80 binding to CD28 was the sole source of co-stimulation for T cells in this experiment, we conclude that sialic acid ligands of CD28 functionally suppress CD28 mediated co-stimulation.

For a further data set, the target named is T1, mouse PD-1 (mPD1) (Mus musculus, UniProt Q02242).
T1 sequence (Q02242 25-288): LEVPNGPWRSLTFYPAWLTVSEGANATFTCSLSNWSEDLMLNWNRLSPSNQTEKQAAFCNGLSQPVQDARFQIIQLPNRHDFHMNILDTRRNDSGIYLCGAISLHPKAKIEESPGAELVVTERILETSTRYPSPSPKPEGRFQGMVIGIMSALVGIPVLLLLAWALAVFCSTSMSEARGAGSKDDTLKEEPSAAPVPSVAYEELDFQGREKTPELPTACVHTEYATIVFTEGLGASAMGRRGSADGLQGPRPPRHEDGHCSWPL
The data set is described as follows: Binding of expressed anti-PD-1 monoclonal antibodies and conjugate to mouse PD-1 (ELISA). Conditions: anti-hPD1 clones. The source says:
FIG. 11. Three expressed anti PD-1 monoclonal antibodies targeted respectively to either human PD-1 (hPD1) and mouse PD-1 (mPD1) bind with high specificity and affinity.
(§1) We investigated the possibility of using non-specific small-molecule linkers to install multiple reactive sites on three expressed αPD1 monoclonal antibodies. […] Through an inverse Electron Demand Diels Alder (iEDDA) reaction, two molecules conjugated respectively with tetrazine and TCO moieties can react rapidly and covalently under ambient conditions. Utilizing the methodology and reagents shown in the reaction scheme in FIG. 12A, we incubated αPD1 antibody clones with NHS-tetrazine 1, allowing non-selective labeling of solvent-exposed lysine residue side-chains (FIG. 12A). Simultaneously, we modified an expressed sialidase from Salmonella typhimurium (ST) containing a C-terminal cysteine though incubation with a 40-fold molar excess of TCO-maleimide 2, leading to near-complete selective modification of the free thiol group (FIG. 12A). To optimize conjugation yield, leading to maximum utilization of antibody starting material while also producing defined products with small numbers of ST per antibody, we titrated the molar ratio of NHS-tetrazine used to load the antibody with reactive groups in step one of the conjugation reaction (FIG. 12B). […]

The nature of data set [2]: Sialidase activity of purified αPD1-S against MUNANA. The class given is biochemical. The conditions noted are these: 1 activity unit=1 μmol min-1; purified single- and double-modified αPD1-S. The method, then: as §1
For a further data set, the system named is exhausted P14 cells. The class given is cell-based, mouse.
A further data set has as its system DCs (expressing CD80). Nature of the data set: Binding of recombinant CD28-Fc to sialidase-treated DCs (flow cytometry). It is filed as cell-based, mouse. (In general: In flow cytometry, cells or beads pass a laser one at a time.)
Data set [3] concerns OT-II cells. Nature of the data set: Adoptive transfer of ex vivo desialylated CTV-stained OT-II cells into OVA experienced host mice. It is filed as in vivo. The conditions noted are these: cells treated ex vivo 45 min at 37° C.; OVA sensitized mice; vs normally sialylated control. The method, then: FIG. 8. Desialylated T cells are more readily activated in vivo. (A) WT mice were injected with OVA on day 1. On day 2, OT-II cells were treated with sialidase or PBS ex vivo for 45 min. at 37° C. and subsequently stained with CTV. These cells were then adoptively transferred into OVA experienced host mice (or naïve mice as a control). On day 5, spleens from host mice were analyzed for adoptively transferred OT-II cells and CTV dilution was evaluated. […] (C) Quantification of data from (B). […] Normalized division index corresponds to T cell division index for sialidase-treated cultures divided by the division index for the corresponding PBS treated control.
To investigate the translatability of these findings to an in vivo system, we adoptively transferred CTV-stained OT-II cells that were desialylated ex vivo into a WT host mouse. We observed that desialylated OT-II cells expanded more efficiently in vivo as compared to a normally sialylated control (FIG. 8).

Data set [4] deals with T cells (CD4^+ and CD8^+) from murine spleen (expressing CD28). The data set is described as follows: Binding of recombinant CD80-Fc to sialidase-treated T cells (flow cytometry). It is filed as cell-based.
Data set [5] deals with OT-II cells (CD4^+ T cells). The data set is described as follows: OT-II proliferation (CTV dilution) in co-culture with OVA-loaded DCs with or without sialidase.
The test system of data set [6] is Polyclonal CD8^+ T cells exhausted via chronic LCMV infection. The class given is cell-based, mice.
Data set [7] concerns OT-I cells (CD8^+ T cells). The data set is described as follows: OT-I proliferation (CTV dilution) in co-culture with OVA-loaded DCs with or without sialidase.
For a further data set, the target named is human CD28 (Homo sapiens, UniProt P10747). The data set is described as follows: Steady state SPR of soluble glycan binding to surface immobilized CD28. The source says: FIG. 5. Biophysical characterization of a CD28-sialoside interaction. Steady state SPR data for α2,3-Sialyl-triLacNAc and triLacNAc binding to surface immobilized human CD28.
human CD28, sequence (P10747 19-220): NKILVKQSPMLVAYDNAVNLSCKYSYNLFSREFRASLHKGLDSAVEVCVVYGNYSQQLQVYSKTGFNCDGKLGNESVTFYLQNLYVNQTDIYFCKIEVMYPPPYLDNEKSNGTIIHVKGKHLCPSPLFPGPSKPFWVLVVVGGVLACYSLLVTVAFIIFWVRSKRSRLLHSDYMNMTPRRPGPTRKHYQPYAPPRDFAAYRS
As an orthogonal test for sialoside binding and to assess the affinity of a sialoside ligand, we tested the ability of surface-immobilized CD28 to bind to a soluble sialylated glycan using SPR.

The target in data set [8] is chimeric PD-1 fused to green fluorescent protein, expressed on Jurkat T cells. The data set is described as follows: cell-based or functional assay.
A further data set concerns the target mouse PD-1 (mouse) (UniProt Q02242). Nature of the data set: ELISA (FIG. 11). In general terms: In an ELISA, binding on a coated surface is turned into a signal by an enzyme label.
The target of data set [9] is T2, CD80 on murine dendritic cells (mouse, UniProt Q00609 38-306).
T2 construct: whole, on cells; DCs (expressing CD80), untreated or treated with V. cholerae sialidase; also called B7-1
T2 sequence: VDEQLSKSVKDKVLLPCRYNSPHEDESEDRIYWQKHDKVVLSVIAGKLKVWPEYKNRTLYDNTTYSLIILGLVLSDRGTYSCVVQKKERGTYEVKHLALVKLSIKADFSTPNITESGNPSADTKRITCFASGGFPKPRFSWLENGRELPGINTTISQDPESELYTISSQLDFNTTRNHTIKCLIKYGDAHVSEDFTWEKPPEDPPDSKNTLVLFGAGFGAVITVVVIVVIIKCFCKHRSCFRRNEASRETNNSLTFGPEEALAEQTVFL
The data set is described as follows: flow cytometry on DCs with or without sialidase.

In a further data set the target is T3, human PD-1 (human, UniProt Q15116 25-167, limits assumed).
T3 construct: also called hPD1
T3 sequence (Q15116 25-167 limits assumed): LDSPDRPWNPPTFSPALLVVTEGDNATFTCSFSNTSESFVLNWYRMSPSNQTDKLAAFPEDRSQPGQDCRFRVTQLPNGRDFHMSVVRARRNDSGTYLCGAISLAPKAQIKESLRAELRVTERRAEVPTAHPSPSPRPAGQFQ
Nature of the data set: ELISA (FIG. 11).

Setting [10] is: OVA-loaded bone marrow derived DCs, 3 days, vs PBS.
Setting [11] is: bulk OVA-loaded splenocytes, DCs differentiated using Flt3L.

For the molecule “NeuAcα2-3Galβ1-4(Fucα1-3)GlcNAc [sialylated-Lewis X]”, the T cell proliferation entry in the data set on OT-II cells [1] is reported as “significant reduction”.
For the molecule Pembrolizumab [409A11], the “affinity for mPD1” value with mouse PD-1 (mPD1) was “no affinity”. Further, the “sialidase activity against MUNANA” value in data set [2] was 26 U mL-1.
For the molecule “sialidase: free sialidase; from V. cholerae in FIG. 2 and 6, source not stated for the other experiments”, the “cytokine production (IFN-γ/TNF-α)” value in the data set on exhausted P14 cells was “enhanced”. Moreover, the “binding of recombinant CD28-Fc to desialylated DCs compared to untreated controls” value with DCs (expressing CD80) was “significant enhancement”. Also, in the data set on OT-II cells [3], the “proliferation of adoptively transferred OT-II cells in vivo” value was “enhanced proliferation”. In data set [4], the “binding of recombinant CD80-Fc to desialylated T cells compared to untreated controls” value is given as “significant enhancement”. Besides, the “enhancement of CD4^+ T cell proliferation” value in data set [5] (setting [10]) is on record as 2-3 fold. Moreover, in data set [5] (setting [11]), the “OT-II cell activation with alternative APC sources” value was “enhancement”. In addition, in data set [6], the “T cell activation (percentage of cells expressing IFN-γ and granzyme B) over peptide alone” value is “enhanced”; the “expression of LAMP-1 over peptide alone” value is given as “enhanced”. Further, the “enhancement of CD8^+ T cell proliferation” value in [7] (setting [10]) is reported as 2-3 fold. For the same molecule, the “OT-I cell activation with alternative APC sources” value in [7] (setting [11]) is given as “enhancement”.
On human CD28, “α2,3-Sialyl-triLacNAc [soluble sialylated glycan]” displayed a Kd of 112 µM.
Turning to “αhPD1-S (409A11), conjugate of anti-human PD-1 clone 409A11 and Salmonella typhimurium sialidase (from UniProt P29768 2-382)”, in data set [8], the desialylation of Jurkat-PD1-GFP against Jurkat T cells (lectin staining SNA, PNA, MAA-II, flow cytometry) is greater than 100 fold and the fold decrease in level of αPD1-S needed for similar desialylation of Jurkat-PD1-GFP against native Jurkat cells lay in the range of 100 to 1000 fold.

B1: anti-mouse PD-1 monoclonal antibody clone J43 (antibody, from another filing, V domains shown)
VH: EVRLLESGGGLVKPEGSLKLSCVASGFTFSDYFMSWVRQAPGKGLEWVAHIYTKSYNYATYYSGSVKGRFTISRDDSRSMVYLQMNNLRTEDTATYYCTRDGSGYPSLDFWGQGTQVTVSS
VL: YELTQPPSASVNVGETVKITCSGDQLPKYFADWFHQRSDQTILQVIYDDNKRPSGIPERISGSSSGTTATLTIRDVRAEDEGDYYCFSGYVDSDSKLYVFGSGTQLTVLG
As to B1, the half-maximal effective concentration (EC50) with mouse PD-1 (mouse) came out at 0.39 µg/mL.

B2: recombinant chimeric mouse CD28 fused to human Fc (Fc fusion, UniProt P31041 20-150, looked up)
chain: NKILVKQSPLLVVDSNEVSLSCRYSYNLLAKEFRASLYKGVNSDVEVCVGNGNFTYQPQFRSNAEFNCDGDFDNETVTFRLWNLHVNHTDIYFCKIEFMYPPPYLDNERSNGTIIHIKEKHLCHTQSSPKL
notes: Commercial Fc chimera; also called CD28-Fc; not shown: human Fc
With B2, the binding result in data set [9] was “binds”.

B3: anti-human PD-1 monoclonal antibody clone 1H3 (antibody, V domains shown)
VH: EVQLVESGGGLVKPGGSLKLSCAASGFTFSDYGMHWVRQAPEKGLEWVAYISSGSYTIYYTDTVKGRFTISRDNAKNTLFLQMTSLRSEDTAMYYCARRGYGSFYEYYFDYWGQGTTLTVSS
VL: QIVLTQSPALMSASPGEKVTMTCSASSSVSYMYWYQQKPRSSPKPWIYLTSNLASGVPARFSGSGSGTSYSLTISSMEAEDAATYYCQQWSSNPFTFGSGTKLEIK
Consider B3, for which it took 0.16 µg/mL to reach a half-maximal effect with human PD-1 (EC50).

For orientation: Kd means the free concentration of one partner at which half of the binding sites on the other are occupied at equilibrium, for simple one-to-one binding. High values mean a looser complex, low ones a tighter complex. Usually EC50 stands for the midpoint of the concentration-response curve. A high value points to a need for much substance.
